Assay results as given in patent publication US6444837B1, “Synthesis and antiviral activity of a series of pyrophosphate analogs” (University of Southern California, priority 1998, dated 2002).

Assays:
[1] = in vivo; cited from earlier work
HHV-8 = assay: quantitative PCR-based (Taqman) assay for agents active against HHV-8 in TPA-induced BCBL-1 cells; format: cell-based, human herpesvirus 8
Description: 3. […] Samples were incubated at 37° C. for 30 minutes.
4. […] Total reaction volumes were 50 μL.

[2] = target: HIV reverse transcriptase (Human immunodeficiency virus type 1 group M subtype B, UniProt P03366); details: HIV RT; cited from earlier work
[3] = XTT-tetrazolium assay of compound toxicity to host cells; format: cell-based; details: human; Table IV, six concentrations; read-out: TC50
Description: Culturing these cells in the presence of phobol ester induces a lytic infection cycle, resulting in the release of viral particles into the medium. Compound efficacy in this proposed assay was determined using the Taqman PCR technology, and compound toxicity to host cells was assessed using an XTT-tetrazolium assay.
1. BCBL-1 cells were counted by the trypan blue dye exclusion method, and the cell count/mL was determined. Cells were pelleted by centrifugation and washed once with PBS to minimize the basal level of virus released from untreated cells which spontaneously enter the lytic cycle and release virus.
2. Cells were resuspended in fresh media and adjusted to a cell density of 1×10^5 per mL. Cells were then plated in the interior wells of 96-well round-bottom microtiter plates in a volume of 50 μL per well.
3. The phorbol ester TPA was added to appropriate wells in a volume of 50 μL per well to yield a final concentration of 20 ng/mL. Medium was added in place of TPA in three wells to serve as a negative control.
4. Test compounds were diluted in DMSO to a stock concentration which is 400× the desired high concentration. These compounds were further diluted in complete medium in 1.2 mL titertubes to yield a solution which is 2× the desired high concentration. […]
2. […] Plates were read on UVMax microtiter plate reader at a wavelength of 450/650 nm.

Cytomegalovirus (CMV) = details: clinical trials, AIDS patients; cited from earlier work

| SMILES | oral bioavailability [1] | TI (therapeutic index) (HHV-8) | IC50 (HHV-8; Human gammaherpesvirus 8, BCBL1, Table IV, six concentrations, Foscarnet value is average of six separate tests) [µM] | Activity (HHV-8; Table IV, by TI) | IC50 [2] [µM] | CC50 at 6 days [3] [µM] | efficacy in treatment of CMV infection (Cytomegalovirus (CMV)) | nephrotoxicity (Cytomegalovirus (CMV)) | antiviral activity against HHV-8 (in words) (HHV-8; bioassay with HHV-8) |
| --- | --- | --- | --- | --- | --- | --- | --- | --- | --- |
| O=C(O)P(=O)(O)O [Foscarnet, Trisodium phosphonoformate] | low | >38.9 | 7.7 | active | ~1 | > 300 | efficacious | reversible nephrotoxicity |  |
| CCCCCCCCCCCCCCOC(=O)P(=O)([O-])OC.[Na+] [ID# 8] |  |  |  |  |  |  |  |  | moderate to relatively high antiviral activity |
